Measurements: EP0346427B1, “MACROCYCLIC COMPOUNDS” (FISONS plc, priority 1987, dated 1989)
pIC50: −log10 of the molar value.

Test system: lymphocytes
Experiment: Mixed Lymphocyte Reaction (MLR) II (Example B)
Format: cell-based
Settings: concentration of compound required to inhibit the proliferation of lymphocytes by 50%, cells from two responding donors, 96 hours incubation, ³H-thymidine for the final 24 hours, read-out: IC₅₀
Protocol: Mixed Lymphoctye Reaction (MLR) II
The MLR test was performed in 96-well microtitre plates with each well containing 3 x 10⁵ cells from each of two responding donors in a final volume of 0.2ml RPMI 1640 medium supplemented with 10% human serum, L-glutamine and penicillin/streptomycin. The compound under test was dissolved at 10mg/ml in ethanol and further diluted in RPMI 1640. The cells were incubated at 37 °C in a humidified atmosphere of 5% carbon dioxide for 96 hours. ³H-thymidine (0.5uCi) was added for the final 24 hours of the incubation to provide a measure of proliferation.
A selection of compounds were tested according to Example B. The concentration of compound required to inhibit the proliferation of lymphocytes by 50% was measured, and the results were as follows: […]

SMILES	pIC50
C=CCC1C=C(C)CC(C)CC(OC)C2OC(O)(C(=O)C(=O)N3CCCCC3C(=O)OC(C(C)=CC3CCC(OCOCCOC)C(OC)C3)C(C)C(O)CC1=O)C(C)CC2OC (stereo not drawn) [Example 27]	> 6.00
CCCC1C=C(C)CC(C)CC(OC)C2OC(O)(C(=O)C(=O)N3CCCCC3C(=O)OC(C(C)=CC3CCC(=O)C(OC)C3)C(C)CCC1=O)C(C)CC2OC (stereo not drawn) [Example 18, 17-Propyl-1-hydroxy-12-[2-(3-methoxy-4-oxocyclohexyl)-1-methylvinyl]-23,25-dimethoxy-13,19,21,27-tetramethyl-11,28-dioxa-4-azatricyclo[22.3.1.0^4,9]octacos-18-ene-2,3,10,16-tetraone.]	> 6.00
CCCC1C=C(C)CC(C)CC(OC)C2OC(O)(C(=O)C(=O)N3CCCCC3C(=O)OC(C(C)=CC3CCC(O)C(OC)C3)C(C)CCC1=O)C(C)CC2OC (stereo not drawn) [Example 12, 17-Propyl-1-hydroxy-12-[2-(4-hydroxy-3-methoxycyclohexyl)-1-methylvinyl]-23,25-dimethoxy-13,19,21,27-tetra methyl-11,28-dioxa-4-azatricyclo[22.3.1.0^4,9]octacos-18-ene-2,3,10,16-tetraone]	> 6.00
COC1CC(C=C(C)C2OC(=O)C3CCCCN3C(=O)C(=O)C3(O)OC(C(OC)CC(C)CC(C)=CC4=C(CC(O)C2C)OC(C[Se]c2ccccc2)C4)C(OC)CC3C)CCC1O (stereo not drawn) [Example 32, 1,14-Dihydroxy-12-[2-(4-hydroxy-3-methoxycyclohexyl)-1-methylvinyl]-26,28-dimethoxy-18-[(phenylseleno)methyl]-13, 22,24,30-tetramethyl-11,17,31-trioxa-4-azatetracyclo[25.3.1. 0.^4,90.^16,20]hentriaconta-16(20),21-diene-2,3,10-trione.]	> 6.00
C=CCC1C=C(C)CC(C)CC(OC)C2OC(O)(C(=O)C(=O)N3CCCCC3C(=O)OC(C(C)=CC3CCC(OC)C(OC)C3)C(C)C(OC)CC1=O)C(C)CC2OC (stereo not drawn) [Example 1, 17-Allyl-1-hydroxy-12-[2-(3,4-dimethoxycyclohexyl)-1-methylvinyl]-14,23,25-trimethoxy-13,19,21,27-tetramethyl-11,28-dioxa-4-azatricyclo[22.3.1.0^4,9]octacos-18-ene-2,3,10,16-tetraone.]	> 6.00
C=CCC1C=C(C)CC(C)CC(OC)C2OC(O)(C(C)CC2OC)C(O)C(=O)N2CCCCC2C(=O)OC(C(C)=CC2CCC(O)C(OC)C2)C(C)C(O)CC1=O (stereo not drawn) [Example 5, 17-Allyl-1,2,14-trihydroxy-12-[2-(4-hydroxy-3-methoxycyclohexyl)-1-methylvinyl]-23,25-dimethoxy-13,19,21,27-tetra methyl-11,28-dioxa-4-azatricyclo[22.3.1.0^4,9]octacos-18-ene-3,10,16-trione]	> 6.00
C=CCC1C=C(C)CC(C)CC(OC)C2OC(O)(C(C)CC2OC)C(O)C(=O)N2CCCCC2C(=O)OC(C(C)=CC2CCC(O)C(OC)C2)C(C)C(O)CC1O (stereo not drawn) [Example 6, 17-Allyl-1,2,14,16-tetrahydroxy-12-[2-(4-hydroxy-3-methoxycyclohexyl)-1-methylvinyl]-23,25-dimethoxy-13,19,21, 27-tetramethyl-11,28-dioxa-4-azatricyclo[22.3.1.0^4,9] octacos-18-ene-3,10-dione]	> 6.00
COC1CC(C=C(C)C2OC(=O)C3CCCCN3C(=O)C(=O)C3(O)OC(C(OC)CC(C)CC(C)=Cc4ccn(CCO)c4CC(O)C2C)C(OC)CC3C)CCC1O (stereo not drawn) [Example 22, 1,14-Dihydroxy-12-[2-(4-hydroxy-3-methoxycyclohexyl)-1-methylvinyl]-26,28-dimethoxy-17-(2-hydroxyethyl)-13,22,24,30-tetramethyl-11,31-dioxa-4,17-diazatetracyclo[25.3.1.0.^4,9 .0^16,20]hentriaconta-16(20),18,21-triene-2,3,10-trione.]	> 6.00
C=CCC1C=C(C)CC(C)CC(OC)C2OC(O)(C(=O)C(=O)N3CCCCC3C(=O)OC(C(C)=CC3CCC(OC)C(OC)C3)C(C)C(O)CC1=O)C(C)CC2OC (stereo not drawn) [Example 2, 17-Allyl-1,14-dihydroxy-12-[2-(3,4-dimethoxycyclohexyl) -1-methylvinyl]-23,25-dimethoxy-13,19,21,27-tetramethyl-11, 28-dioxa-4-azatricyclo[22.3.1.0^4,9]octacos-18-ene-2,3,10, 16-tetraone]	> 6.00
C=CCC1C=C(C)CC(C)CC(OC)C2OC(O)(C(C)CC2OC)C2(CO2)C(=O)N2CCCCC2C(=O)OC(C(C)=CC2CCC(O)C(OC)C2)C(C)C(O)CC1=O (stereo not drawn) [Example 30, 17-Allyl-1,14-dihydroxy-12-[2-(4-hydroxy-3-methoxycyclohexyl)-1-methylvinyl]-23,25-dimethoxy-13,19,21, 27-tetramethyl-11,28-dioxa-4-aza-spiro[tricyclo [22.3.1.0^4,9]octacos-18-ene-2,2'-oxirane]-3,10,16-trione.]	> 6.00
C=CCC1C=C(C)CC(C)CC(OC)C2OC(O)(C(=O)C(=O)N3CCCCC3C(=O)OC(C(C)=CC3CCC(O)C(OC)C3)C(C)CCC1=O)C(C)CC2OC (stereo not drawn) [Example 17, 17-Allyl-l-hydroxy-12-[2-(4-hydroxy-3-methoxycyclohexyl)-1-methylvinyl]-23,25-dimethoxy-13,19,21,27-tetramethyl-11,28-dioxa-4-azatricyclo[22.3.1.0^4,9]octacos-18-ene-2,3,10,16-tetraone]	> 6.00
C=CCC1C=C(C)CC(C)CC(OC)C2OC(O)(C(C)CC2OC)C(O)C(=O)N2CCCCC2C(=O)OC(C(C)=CC2CCC(O)C(OC)C2)C(C)CCC1=O (stereo not drawn) [Example 15, 17-Allyl-1,2-dihydroxy-12-[2-(4-hydroxy-3-methoxy-cyclohexyl)-1-methylvinyl]-23,25-dimethoxy-13,19,21,27-tetra methyl-11,28-dioxa-4-azatricyclo-[22.3.1.0^4,9]octacos-18-ene-3,10,16-trione]	> 6.00
